The results in this text go back to publication PMC6273213, “Novel Triazole-Quinoline Derivatives as Selective Dual Binding Site Acetylcholinesterase Inhibitors” (Molecules, 2016).

For one assay, the target named is T1, hAChE (Homo sapiens, UniProt P22303).
T1 construct: purchased Sigma-Aldrich; host or cells: HEK 293 cells
Put plainly: biochemical. The settings on record: for inhibition at 100 µM: 100 μM compound, substrate ACThI; for inhibition at 100 µM / IC50: human recombinant hAChE; for IC50: at least six concentrations, read-out: IC50 ± SEM (μM) hAChE; for Ki: steady-state inhibition constant from replots of reciprocal plots, read-out: Ki ± SEM (μM) hAChE; for Mechanism Type hAChE: Lineweaver-Burk plots. The protocol:
(§1) Buffer components and all of the chemicals used were all analytical grade materials, and were obtained from Sigma, Merck (Darmstadt, Germany), Synth (São Paulo, Brazil) or Acros (Geel, Belgium). The water used in all of the preparations was purified with a Millipore Milli-Q® system (Millipore, São Paulo, Brazil).
(§2) The ligand assays were carried out in accordance with the literature, albeit with some modifications. Briefly, the assays were carried out using a 96-well microplate with an Elisa microplate reader. To a final volume of 250 µL, each well was filled with: 125 µL of Ellman’s reagent (3 mM in […] phosphate buffer pH 7.4); 50 µL of buffer TRIS (50 mM, pH 8.0); 25 µL of enzyme solution at the final concentration 0.28 U/mL (in […] phosphate buffer pH 7.4); 25 µL of the ACThI (15 mM) for AChE and 25 µL of the BCThI (15 mM) for BChE; and 25 µL of each inhibitor sample (1 mM), final concentration at 100 µM. The microplate was shaken for 10 s followed by reading the absorbance at 412 nm at 30 s intervals for two minutes. The negative control (compound and absence of ACThI) and a positive control (ACThI and absence of compound) were carried out.
(§3) The assays were carried out in duplicate.
IC50 values were independently determined by performing rate measurements for at least six concentrations of the target inhibitor. The nonlinear regression parameters were calculated, and the IC50 was extrapolated.

The target in the next assay is T2, hBChE (Homo sapiens, UniProt P06276).
T2 construct: hBChE EC 3.1.1.8, 50 units mg^−1 from human erythrocytes; purchased Sigma-Aldrich; host or cells: human erythrocytes
T2 sequence (P06276 29-602): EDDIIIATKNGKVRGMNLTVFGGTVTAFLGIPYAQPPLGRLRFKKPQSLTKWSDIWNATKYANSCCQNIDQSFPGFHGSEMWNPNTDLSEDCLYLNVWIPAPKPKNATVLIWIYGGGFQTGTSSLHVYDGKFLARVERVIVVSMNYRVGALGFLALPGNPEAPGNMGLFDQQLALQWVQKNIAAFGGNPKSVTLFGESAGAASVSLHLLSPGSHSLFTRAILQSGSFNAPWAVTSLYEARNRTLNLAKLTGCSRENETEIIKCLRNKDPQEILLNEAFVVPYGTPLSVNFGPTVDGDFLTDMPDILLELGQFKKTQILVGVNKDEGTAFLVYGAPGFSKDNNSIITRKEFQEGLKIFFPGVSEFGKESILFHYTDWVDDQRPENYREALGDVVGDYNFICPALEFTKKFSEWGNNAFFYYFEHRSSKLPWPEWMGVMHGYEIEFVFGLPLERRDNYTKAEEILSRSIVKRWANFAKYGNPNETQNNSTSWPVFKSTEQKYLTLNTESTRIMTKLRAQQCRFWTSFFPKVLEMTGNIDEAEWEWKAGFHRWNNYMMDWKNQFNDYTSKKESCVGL
The assay is described as follows: biochemical. Conditions: 100 μM compound; substrate BCThI. The protocol:
as §1, §2, §3

Counter-ions that a name gives are not always drawn.

T1 sequence (P22303 32-614): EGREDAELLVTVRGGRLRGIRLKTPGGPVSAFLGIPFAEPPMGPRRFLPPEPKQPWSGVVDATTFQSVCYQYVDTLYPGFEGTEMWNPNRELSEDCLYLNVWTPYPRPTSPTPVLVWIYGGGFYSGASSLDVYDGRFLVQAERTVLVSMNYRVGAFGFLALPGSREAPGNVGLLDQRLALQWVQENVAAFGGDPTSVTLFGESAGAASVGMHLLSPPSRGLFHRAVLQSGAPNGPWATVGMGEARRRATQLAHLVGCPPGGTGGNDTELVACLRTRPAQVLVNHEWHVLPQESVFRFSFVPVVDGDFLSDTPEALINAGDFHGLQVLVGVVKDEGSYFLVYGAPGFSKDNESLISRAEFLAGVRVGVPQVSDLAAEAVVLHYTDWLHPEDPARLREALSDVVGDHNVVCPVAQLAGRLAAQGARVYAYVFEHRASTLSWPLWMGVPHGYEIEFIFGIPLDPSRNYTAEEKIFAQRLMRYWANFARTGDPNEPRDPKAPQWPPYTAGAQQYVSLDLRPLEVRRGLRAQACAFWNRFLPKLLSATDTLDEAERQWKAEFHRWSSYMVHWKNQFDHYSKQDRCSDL

A word on the inhibition: it is the relative decrease from the control value, in per cent. Usually IC50 stands for the concentration that gives 50% inhibition. By Ki is commonly meant the equilibrium dissociation constant of an inhibitor or competing ligand from its target. `COc1cc2c(cc1OC)C(=O)/C(=C/c1ccc(-c3cn(-c4ccnc5ccccc45)nn3)cc1)C2` [3a, (E)-5,6-Dimethoxy-2-(4-(1-(quinolin-4-yl)-1H-1,2,3-triazol-4-yl)benzylidene)-2,3-dihydro-1H-inden-1-one]: on hAChE, the inhibition at 100 µM was determined as 29%, the IC50 was found to be 128 ± 25 µM and the inhibition constant (Ki) is 185 ± 29 µM. At 100 µM the inhibition on hBChE was 0%.

Take `O=C1C(=Cc2ccc(-c3cn(-c4ccnc5ccccc45)nn3)cc2)Cc2cc3c(cc21)OCO3` [3b, (E)-5,6-Methilenedioxy-2-(4-(1-(quinolin-4-yl)-1H-1,2,3-triazol-4-yl)benzylidene)-2,3-dihydro-1H-inden-1-one]: the results for the inhibition at 100 µM on hAChE and against hBChE were 0% and 5.2%, respectively.

As for `COc1cc2c(cc1Cl)C/C(=C\c1ccc(-c3cn(-c4ccnc5ccccc45)nn3)cc1)C2=O` [3c, (E)-5-Chloro-6-methoxy-2-(4-(1-(quinolin-4-yl)-1H-1,2,3-triazol-4-yl)benzylidene)-2,3-dihydro-1H-inden-1-one], the inhibition at 100 µM was determined as 5.4% at hAChE and 6.2% on hBChE.

For the compound `Cc1ccc2c(c1)C(=O)/C(=C/c1ccc(-c3cn(-c4ccnc5ccccc45)nn3)cc1)C2` [3d, (E)-6-Methyl-2-(4-(1-(quinolin-4-yl)-1H-1,2,3-triazol-4-yl)benzylidene)-2,3-dihydro-1H-inden-1-one], the inhibition at 100 µM at hAChE is 9.1%; at hBChE, 0%.

Consider `O=C1/C(=C/c2ccc(-c3cn(-c4ccnc5ccccc45)nn3)cc2)Cc2ccc(Cl)cc21` [3e, (E)-6-Chloro-2-(4-(1-(quinolin-4-yl)-1H-1,2,3-triazol-4-yl)benzylidene)-2,3-dihydro-1H-inden-1-one], for which, at hAChE, the inhibition at 100 µM was found to be 37.7%, the 50% inhibitory concentration (IC50) worked out at 147 ± 15 µM and the Ki was 530 ± 150 µM. The compound also registered an inhibition at 100 µM against hBChE of 0%.

On to `COc1ccc2c(c1)C/C(=C\c1ccc(-c3cn(-c4ccnc5ccccc45)nn3)cc1)C2=O` [3g, (E)-5-Methoxy-2-(4-(1-(quinolin-4-yl)-1H-1,2,3-triazol-4-yl)benzylidene)-2,3-dihydro-1H-inden-1-one], for which, at hAChE, the inhibition at 100 µM stood at 48.1%, the “Mechanism Type hAChE” value is “mixed-type”, the IC50 is 114 ± 10 µM and the Ki came out at 220 ± 60 µM. The compound further yielded an inhibition at 100 µM on hBChE of 0.2%.

Consider `COc1ccc2c(c1)C(=O)/C(=C/c1ccc(-c3cn(-c4ccnc5ccccc45)nn3)cc1)C2` [3h, (E)-6-Methoxy-2-(4-(1-(quinolin-4-yl)-1H-1,2,3-triazol-4-yl)benzylidene)-2,3-dihydro-1H-inden-1-one], for which, at hAChE, the inhibition at 100 µM was 55.7%, the “Mechanism Type hAChE” value is “mixed-type”, the IC50 was 109 µM and the Ki is 245 ± 70 µM. For the same compound, testing at 100 µM against hBChE gave an inhibition of 0%.

Turning to `COc1cc2c(cc1OC)C(=O)C(CC1CCN(Cc3ccccc3)CC1)C2` (stereo not shown) [Donepezil, donepezil hydrochloride monohydrate, reference compound], at 100 µM the inhibition against hBChE was 11.1%.
